A short description of the data set: Window pane method for critical energy Ec and laser penetration depth Dp. The class given is physicochemical. As to conditions: inhibitor added to resin formulation; for influence of inhibitor concentration on laser penetration depth Dp: FIGS. 1 and 3; for influence of inhibitor concentration on critical energy Ec: FIGS. 2 and 4. The protocol: Into the mixture according to the invention, 2,2,6,6-tetramethylpiperdine-1-yloxy (free radical) is added. The influence of the concentration of the 2,2,6,6-tetramethylpiperdine-1-yloxy (free radical) in the exemplary formalation 1 upon the penetration depth of the laser beam and energy has been shown in FIGS. 1 and 2. The laser penetration depth and the critical energy are determined by means of the window pane method described by P. F. Jacobs and D. R. Read in Rapid Prototyping and Manufacturing of the Society of Manufacturing Engineers, Dearborn, Mich. (1992), 1st, ed., pgs. 263-280. […] This influence of the inhibitor 2,2,6,6-tetramethylpiperdine-1-yloxy (free radical) upon the relevant parameters Ec (critical energy in mJ cm^−2) and Dp (laser penetration depth in mils) of the stereolithographic resin, the effect differing from the influence of the inhibitors like, for example, hydroquinone-monomethylether which are added to stereolithographic resins in accordance with the state of the art. The influence of the hydroquinonemonomethylether on the parameters Ec and Dp in the exemplary formulations 2 is shown in FIGS. 3 and 4.
The relevant parameters for the use of the above mentioned resins in stereolithography are collected in Table 1. All viscosity measurements were carried out at 23° C. with a CVO 120 rheometer of Bohlin Instruments. The determination of the bend strength, the modulus of elasticity and the elongation were carried out in accordance with EN ISO 178 (1996) with a Zwick 1—test machine of the Zwick firm. For the determination of the Ec and Dp values by means of the above mentioned window pane method, the average value from 10 window pane sample bodies was determined. The sample bodies were produced with a Viper Si^2 SLA apparatus equipped with an ND:YVO4 solid body laser. The green bodies were after hardened with a stroboscope lighting unit Sonolux PR from Innovation Meditech by means of 4000 flashes.

`COc1ccc(O)cc1` [hydroauinonemonomethylether, hydroquinone-monomethylether]: the “influence of inhibitor concentration on laser penetration depth Dp” value is given as “greater than in the case of the use of the 2,2,6,6-tetramethyl piperdine-1-yloxy (free radical)” and the “influence of inhibitor concentration on critical energy Ec” value is on record as “can only be adjusted by significantly higher concentrations”.
In the same order, the values of `CC1(C)CCCC(C)(C)N1[O]` [2,2,6,6-tetramethylpiperdine-1-yloxy (free radical)] are “only a limited change in the penetration depth” and “surprising increase in the critical energy”.

For the origin of these results see patent US7232646B2, “Low-viscous, radiation curable formulation, particularly for the stereo-lithographical production of earpiece” (Dreve-Otoplastik GmbH, priority 2003, dated 2007).
